Reference: PubChem BioAssay (NCI)
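Tested at 5 concentrations; 48 h exposure; 96-well plates; endpoints linearly interpolated, else capped at highest concentration. TGI is the concentration that stops growth completely.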

What was measured:
Assay in all cases: NCI-60 cell line screen, 48 h
[1] = system: LOX IMVI melanoma
[2] = system: MDA-MB-435
[3] = system: CCRF-CEM leukemia
[4] = system: NCI-H460 lung
[5] = system: OVCAR-5 ovarian
[6] = system: MALME-3M melanoma
[7] = system: TK-10 renal
[8] = system: NCI-H226 lung
[9] = system: MCF7 breast
[10] = system: SF-295 CNS

| Structure (SMILES) | TGI [1] | TGI [2] | TGI [3] | TGI [4] | TGI [5] | TGI [6] | TGI [7] | TGI [8] | TGI [9] | TGI [10] |
| --- | --- | --- | --- | --- | --- | --- | --- | --- | --- | --- |
| C=C1OC(c2ccccc2NC)=NC12CCCCC2 | > 100 µM | > 100 µM | > 100 µM | > 100 µM | > 100 µM | > 100 µM | > 100 µM | > 100 µM | > 100 µM | > 100 µM |
| CN(C)c1ccc(/C=C(\NC(=O)c2ccccc2)c2nn(C)c(=O)o2)cc1 | > 100 µM | > 100 µM | > 100 µM | > 100 µM | > 100 µM | > 100 µM | > 100 µM | 93.8 µM | > 100 µM | > 100 µM |
| Cc1cc(S(=O)(=O)/N=C(/C(=C=[N-])C#N)[n+]2ccc(N(C)C)cc2)c(SCC(=O)O)cc1Cl |  | > 100 µM | > 100 µM | > 100 µM | > 100 µM | 64.5 µM | > 100 µM | > 100 µM | > 100 µM | > 100 µM |
| CN(C)CCNC(=O)c1cc(Cl)cc2ccc(-c3ccccc3)nc12 | 6.7 µM |  | 6.01 µM | 7.09 µM | 13.7 µM | 8.26 µM |  | 7.02 µM | 14.5 µM | 15.4 µM |
| O=C1C=CC=C/C1=C1\N=C(c2ccccc2OCC(=O)c2ccccc2)SS1 | > 100 µM | > 100 µM | > 100 µM | > 100 µM | > 100 µM | > 100 µM | > 100 µM | > 100 µM | > 100 µM | > 100 µM |
| NCCCCNCCCNC(=O)c1nc(-c2nc(CCN)sc2Cl)sc1Cl |  |  | > 100 µM | > 100 µM | > 100 µM | > 100 µM | > 100 µM | > 100 µM |  | > 100 µM |
| OCCOCn1nncc1Cn1ncc2c(SCc3ccccc3)ncnc21 | > 100 µM | > 100 µM |  | > 100 µM | > 100 µM | > 100 µM | > 100 µM | > 100 µM | > 100 µM | > 100 µM |
| COc1ccccc1C1Nn2c(nc3ccccc3c2=O)N1c1ccc(C)cc1 (stereo not given) | 20.8 µM | 22.7 µM | 24.7 µM | 16.3 µM | 26.6 µM | 38.7 µM | 22.7 µM | 9.94 µM | 26.3 µM | 17.8 µM |
| O=C1NC2CCCCC2N=C1CC(=O)c1ccc(Br)cc1 (stereo not given) | > 100 µM | > 100 µM | > 100 µM | > 100 µM | > 100 µM | > 100 µM | > 100 µM | 81.2 µM | > 100 µM | > 100 µM |
| Cc1cc(C)nc(NS(=O)(=O)c2ccc(Nc3c4ccccc4nc4c(C(=O)N5CCN(CCOS(C)(=O)=O)CC5)cccc34)cc2)n1 |  |  | > 100 µM | > 100 µM | > 100 µM | > 100 µM | > 100 µM | > 100 µM |  | > 100 µM |
| COc1ccccc1CN=C1Nc2ccncc2S(=O)(=O)N1c1ccccc1 | > 100 µM | > 100 µM | > 100 µM | > 100 µM | > 100 µM | > 100 µM | > 100 µM | > 100 µM | > 100 µM | > 100 µM |
| NC(=O)c1csc(C2(O)COC(CO)C2O)n1 (stereo not given) | > 100 µM | > 100 µM | > 100 µM | > 100 µM | > 100 µM | > 100 µM | > 100 µM | > 100 µM | > 100 µM | > 100 µM |
| O=C(OCCN=c1c2ccccc2ccc2ccccc12)c1ccccc1 | > 100 µM | > 100 µM | > 100 µM | > 100 µM | > 100 µM | > 100 µM | > 100 µM | > 100 µM | > 100 µM | > 100 µM |
| COc1ccc(OC2OC(CO)C(OCc3ccccc3)C(OCc3ccccc3)C2OCc2ccccc2)cc1 (stereo not given) | > 100 µM | > 100 µM | > 100 µM | > 100 µM | > 100 µM | > 100 µM | > 100 µM | > 100 µM | > 100 µM | > 100 µM |
| Cn1c(=O)c(-c2ccccc2)c(O)c2ccccc21 | > 100 µM | > 100 µM | > 100 µM | > 100 µM | > 100 µM | > 100 µM | > 100 µM | > 100 µM | > 100 µM | > 100 µM |
| O=c1cc(-c2ccncc2)[nH]c2cc3c(cc12)OCO3 |  | > 100 µM |  | > 100 µM | > 100 µM |  | > 100 µM | > 100 µM | > 100 µM | > 100 µM |
| O=C(CCc1cc(O)cc(O)c1)NCCCNC(=O)CCc1cc(O)cc(O)c1 | > 100 µM | > 100 µM | > 100 µM |  | > 100 µM | > 100 µM | > 100 µM | > 100 µM | > 100 µM | > 100 µM |
| CO[C@H]1SC[C@H](OC(C)=O)[C@H](OC(C)=O)[C@H]1OC(C)=O | > 100 µM | > 100 µM | > 100 µM | > 100 µM |  | > 100 µM | > 100 µM | > 100 µM | > 100 µM | > 100 µM |
| Cc1ccc2c(c1)-c1c(C#N)c(N)nc(-c3ccc(Cl)cc3)c1CCS2(=O)=O | > 100 µM | > 79.2 µM | > 23.7 µM | > 100 µM | > 100 µM | > 100 µM | > 100 µM | > 100 µM | > 100 µM | > 100 µM |
| CCOc1ccc(Nc2nc(N)nc(N)c2N)cc1 | > 100 µM | 65 µM | > 100 µM | 98 µM | > 100 µM | 66.2 µM | > 100 µM | > 100 µM | 38.1 µM | 45.8 µM |
| O=C(O)c1cccc2cccc(-c3cccc4cccc(C(=O)O)c34)c12 | > 100 µM | > 100 µM | > 100 µM | > 100 µM | > 100 µM | > 100 µM | > 100 µM | > 100 µM | > 100 µM | > 100 µM |
| O=c1c(Cc2ccc(Cl)cc2)nnc2sc(-c3ccc(-c4ccc(F)c(Cl)c4)o3)nn12 | > 100 µM | > 100 µM | > 100 µM | > 100 µM | > 100 µM | > 100 µM | > 100 µM | > 100 µM | > 100 µM | > 100 µM |
